Reference: patent US6204026A, “Detection of M. tuberculosis complex via reverse transcriptase SDA” (priority 1997, dated 2001)

Tested on: M. tuberculosis
Assay type: cell-based, Mycobacterium tuberculosis

NNC(=O)c1ccncc1 [INH, Isoniazid]
time of exposure within which changes in α-antigen mRNA were detected: ≤ 24 h

CO[C@H]1/C=C/O[C@@]2(C)Oc3c(C)c(O)c4c(O)c(c(/C=N/N5CCN(C)CC5)c(O)c4c3C2=O)NC(=O)/C(C)=C\C=C\[C@H](C)[C@H](O)[C@@H](C)[C@@H](O)[C@@H](C)[C@H](OC(C)=O)[C@@H]1C [RIF, rifampin]
decline in detectable α-antigen mRNA, compared with INH-treated cultures: more rapid
time of exposure within which changes in α-antigen mRNA were detected: ≤ 24 h
